# Assay results as given in patent US8003785B2 (Takeda Pharmaceutical Company Limited, priority 2008, dated 2011).
# Molecular target: T1, PLK1 (Homo sapiens, UniProt P53350)
# T1 construct: Full-length, active GST-PLK1 is purified from Sf9 insect cells; made in house; host or cells: Sf9 insect cells
# Test: Biochemical Characterization Assay: HTRF kinase assay, GST-PLK1 phosphorylation of GST-p53
# Details: GST-PLK1, GST-p53 substrate
# Summary of the method: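 HTRF read-out of p53 phosphorylation: after EDTA stop, anti-phospho-p53 antibody bound 30 min at 37 °C in HEPES pH 7 buffer, with Eu-anti-rabbit/APC-anti-GST detection. Kinase step used full-length Sf9-expressed GST-PLK1 (3 ug/mL) and E. coli GST-p53 substrate, 35 min at 37 °C.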
# T1 sequence (P53350 whole entry): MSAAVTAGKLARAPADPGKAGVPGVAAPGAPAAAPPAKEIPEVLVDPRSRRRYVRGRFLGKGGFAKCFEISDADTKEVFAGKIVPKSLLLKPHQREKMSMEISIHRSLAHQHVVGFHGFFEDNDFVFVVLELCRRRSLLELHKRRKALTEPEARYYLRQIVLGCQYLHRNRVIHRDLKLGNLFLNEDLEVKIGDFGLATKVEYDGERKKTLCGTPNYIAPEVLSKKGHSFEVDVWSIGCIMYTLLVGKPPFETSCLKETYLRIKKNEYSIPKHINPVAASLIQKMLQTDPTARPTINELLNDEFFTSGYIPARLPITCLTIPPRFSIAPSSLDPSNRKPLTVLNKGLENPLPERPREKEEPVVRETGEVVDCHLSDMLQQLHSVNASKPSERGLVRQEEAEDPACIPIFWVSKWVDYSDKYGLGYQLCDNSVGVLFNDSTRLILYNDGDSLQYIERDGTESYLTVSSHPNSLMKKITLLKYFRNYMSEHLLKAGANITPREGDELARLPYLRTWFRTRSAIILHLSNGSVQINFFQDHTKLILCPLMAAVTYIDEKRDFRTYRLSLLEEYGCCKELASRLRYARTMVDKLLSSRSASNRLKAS
row,IC50,Compound
1,1 to 50 nM,"COc1cc(C(=O)N[C@H]2CC[C@@H](N3CCN(CC4CC4)CC3)CC2)ccc1Nc1ncc2c(n1)N(C(C)C)CC(F)(F)C(=O)N2C [Example I-301, N-[cis-4-(4-cyclopropylmethyl-piperazin-1-yl)-cyclohexyl]-4-(7,7-difluoro-9-isopropyl-5-methyl-6-oxo-6,7,8,9-tetrahydro-5H-pyrimido[4,5-b][1,4]diazepin-2-ylamino)-3-methoxy-benzamide]"
2,1 to 50 nM,"COc1cc(C(=O)N[C@H]2CC[C@H](N3CCN(CC4CC4)CC3)CC2)ccc1Nc1ncc2c(n1)N(C(C)C)CC(F)(F)C(=O)N2C [Example I-302, N-[trans-4-(4-cyclopropylmethyl-piperazin-1-yl)-cyclohexyl]-4-(7,7-difluoro-9-isopropyl-5-methyl-6-oxo-6,7,8,9-tetrahydro-5H-pyrimido[4,5-b][1,4]diazepin-2-ylamino)-3-methoxy-benzamide]"
3,51 to 500 nM,"COc1cc(C(=O)NC2CCN(C)CC2)ccc1Nc1ncc2c(n1)NCC(F)(F)C(=O)N2C [Example I-303, 4-(7,7-difluoro-5-methyl-6-oxo-6,7,8,9-tetrahydro-5H-pyrimido[4,5-b][1,4]diazepin-2-ylamino)-3-methoxy-N-(1-methyl-piperidin-4-yl)-benzamide]"
4,51 to 500 nM,"COc1cc(C(=O)NC2CCN(C)CC2)ccc1Nc1ncc2c(n1)N(CCOc1ccccc1)CC(F)(F)C(=O)N2C [Example I-304, 4-[7,7-difluoro-5-methyl-6-oxo-9-(2-phenoxy-ethyl)-6,7,8,9-tetrahydro-5H-pyrimido[4,5-b][1,4]diazepin-2-ylamino]-3-methoxy-N-(1-methyl-piperidin-4-yl)-benzamide]"
